Test results from ChEMBL document CHEMBL1147797, “Construction of human ghrelin receptor (hGHS-R1a) model using a fragmental prediction approach and validation through docking analysis” (J Med Chem, 2006).

These molecules were tested against Growth hormone secretagogue receptor type 1 (Homo sapiens, UniProt Q92847) (assay: Activity at human GHS-R1a receptor in rat pituitary cells assessed as GH release).
Assay type: cell-based, Pituitary gland cell

Sequence of Growth hormone secretagogue receptor type 1 (Q92847 whole entry): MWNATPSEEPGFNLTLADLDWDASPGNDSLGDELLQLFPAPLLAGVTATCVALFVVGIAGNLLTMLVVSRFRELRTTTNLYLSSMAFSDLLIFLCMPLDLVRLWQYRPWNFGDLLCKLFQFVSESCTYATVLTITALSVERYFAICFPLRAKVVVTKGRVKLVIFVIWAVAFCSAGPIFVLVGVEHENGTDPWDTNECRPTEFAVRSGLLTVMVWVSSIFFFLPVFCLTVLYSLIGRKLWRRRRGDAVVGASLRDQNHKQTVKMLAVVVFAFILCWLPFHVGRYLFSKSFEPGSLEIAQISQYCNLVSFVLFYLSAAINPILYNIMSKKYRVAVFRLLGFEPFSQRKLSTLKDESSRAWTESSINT

Going from `CC(C)(N)C(=O)N[C@H](CCCc1ccccc1)C(=O)N1CCC2(CC1)CSc1ccccc12` to `CC(C)(N)C(=O)N[C@H](CCc1ccccc1)C(=O)N1CCC2(CC1)CSc1ccccc12`, the EC50 rises from 4.8 nM to 57 nM (12-fold).

Compared with `CC(C)(N)C(=O)N[C@H](Cc1c[nH]c2ccccc12)C(=O)N1CCC2(CC1)CSc1ccccc12`, `CC(C)(N)C(=O)N[C@H](Cc1c[nH]c2ccccc12)C(=O)N1CCC2(CCc3ccccc32)CC1` [L-162752] is 2.5-fold higher in EC50: 5.6 nM for the first, 14 nM for the second.

Compared with `CC(C)(N)C(=O)N[C@H](Cc1c[nH]c2ccccc12)C(=O)N1CCC2(CC1)CS(=O)(=O)c1ccccc12`, `CC(C)(N)C(=O)N[C@H](Cc1c[nH]c2ccccc12)C(=O)N1CCC2(CC1)C[C@@H](O)c1ccccc12` is 3.5-fold lower in EC50: 2.1 nM for the first, 0.6 nM for the second.

First: CC(C)(N)C(=O)N[C@H](COCc1ccccc1)C(=O)N1CCC2(CC1)CSc1ccccc12
Second: CC(C)(N)C(=O)N[C@H](COCc1ccccc1)C(=O)N1CCC2(CCc3ccccc32)CC1
The EC50 of the first is 1.7-fold lower: 10 nM for the first, 17 nM for the second.

First: CC(C)(N)C(=O)N[C@H](COCc1ccccc1)C(=O)N1CCC2(CC1)C[S+]([O-])c1ccccc12 (stereo partly drawn)
Second: CC(C)(N)C(=O)N[C@H](CCCc1ccccc1)C(=O)N1CCC2(CC1)C[S+]([O-])c1ccccc12 (stereo partly drawn)
The EC50 of the first is 3.4-fold higher: 8.5 nM for the first, 2.5 nM for the second.

Going from `CC(C)(N)C(=O)N[C@H](CCCc1ccccc1)C(=O)N1CCC2(CC1)CS(=O)(=O)c1ccccc12` to `CC(C)(N)C(=O)N[C@H](CCc1ccccc1)C(=O)N1CCC2(CC1)CS(=O)(=O)c1ccccc12`, the EC50 rises from 1.1 nM to 6 nM (5.5-fold). The first is the more potent here.

First: CC(C)(N)C(=O)N[C@H](CCCc1ccccc1)C(=O)N1CCC2(CC1)COc1ccccc12
Second: CC(C)(N)C(=O)N[C@H](COCc1ccccc1)C(=O)N1CCC2(CC1)COc1ccccc12
The EC50 of the first is 3.1-fold lower: 2.7 nM for the first, 8.5 nM for the second. The first is the more potent here.

Compared with `CC(C)(N)C(=O)N[C@H](COCc1ccccc1)C(=O)N1CCC2(CC1)CS(=O)(=O)c1ccccc12`, `CC(C)(N)C(=O)N[C@H](CCc1ccccc1)C(=O)N1CCC2(CCc3ccccc32)CC1` is 4.4-fold higher in EC50: 5 nM for the first, 22 nM for the second.

Compared with `CNC(C)(C)C/C=C/C(=O)N(C)[C@H](Cc1ccc2ccccc2c1)C(=O)N(C)Cc1ccccc1`, `CNC(C)(C)C/C=C/C(=O)N(C)[C@H](Cc1ccc2ccccc2c1)C(=O)N(C)CCc1cccs1` is 3.8-fold lower in EC50: 3 nM for the first, 0.8 nM for the second.

`CCN1N=C2CCN(C(=O)[C@@H](COCc3ccccc3)NC(=O)C(C)(C)N)C[C@]2(Cc2ccccc2)C1=O` and `CN1N=C2CCN(C(=O)[C@@H](COCc3ccccc3)NC(=O)C(C)(C)N)C[C@]2(Cc2ccccc2)C1=O` are within 1.5-fold of each other in EC50: 4 nM for the first, 3 nM for the second.

First: CCNC(=O)[C@@]1(Cc2ccccc2)CCCN(C(=O)[C@@H](Cc2c[nH]c3ccccc23)NC(=O)C(C)(C)N)C1
Second: CCOC(=O)[C@@]1(Cc2ccccc2)CCCN(C(=O)[C@@H](Cc2c[nH]c3ccccc23)NC(=O)C(C)(C)N)C1
The EC50 of the first is 2-fold lower: 0.8 nM for the first, 1.6 nM for the second. The first is the more potent here.

Compared with `CC(C)(N)C(=O)N[C@H](CCCc1ccccc1)C(=O)N1CCC2(CCc3ccccc32)CC1`, `CC(C)(N)C(=O)N[C@H](COCc1ccccc1)C(=O)N1CCC2=NNC(=O)[C@@]2(Cc2ccccc2)C1` is 3.3-fold lower in EC50: 10 nM for the first, 3 nM for the second. The second is the more potent here.

First: CC(C)(N)C(=O)N[C@@H]1CCc2ccccc2N(Cc2ccc(-c3ccccc3CNC(=O)NCCO)cc2)C1=O
Second: CCNC(=O)NCc1ccccc1-c1ccc(CN2C(=O)[C@H](NC(=O)C(C)(C)N)CCc3ccccc32)cc1
The EC50 of the first is 3-fold lower: 2 nM for the first, 6 nM for the second. The first is the more potent here.

`CNC(C)(C)C/C=C/C(=O)N(C)[C@H](Cc1ccc2ccccc2c1)C(=O)N(C)CCc1ccccc1OCCO` and `CN(CCc1ccccc1OCCO)C(=O)[C@@H](Cc1ccc2ccccc2c1)N(C)C(=O)/C=C/CC(C)(C)N` are the same in EC50: 5 nM for the first, 5 nM for the second.

Compared with `CN(CCc1cccs1)C(=O)[C@@H](Cc1ccc(-c2ccccc2)cc1)N(C)C(=O)/C=C/CC(C)(C)N`, `CN(CCc1cccs1)C(=O)[C@@H](Cc1ccc2ccccc2c1)N(C)C(=O)/C=C/CC(C)(C)N` is 1.5-fold higher in EC50: 5 nM for the first, 7.5 nM for the second. The first is the more potent here.

First: CN(CCc1ccccc1NS(C)(=O)=O)C(=O)[C@@H](Cc1ccc2ccccc2c1)N(C)C(=O)/C=C/CC(C)(C)N
Second: CNC(=O)[C@@H](Cc1ccccc1)N(C)C(=O)[C@@H](Cc1ccc2ccccc2c1)N(C)C(=O)/C=C/CC(C)(C)N [TABIMORELIN]
The EC50 of the first is 6-fold higher: 18 nM for the first, 3 nM for the second. The second is the more potent here.

`CNC(=O)NCc1ccccc1-c1ccc(CN2C(=O)[C@H](NC(=O)C(C)(C)N)CCc3ccccc32)cc1` gave an EC50 of 1 nM.
